Reference: ChEMBL document CHEMBL1122639, “Racemic and optically active 2,9-dimethyl-5-(m-hydroxyphenyl)morphans and pharmacological comparison with the 9-demethyl homologues” (1984)
The source made the active and inactive calls. No cut-off for these calls is given here.

Key:
Mus musculus [1] = experiment: Compound was administered subcutaneously and was evaluated for opioid agonist activity by antinociceptive tail-flick (TF) assay in mice; I denotes Inactive at 30 mg/kg; assay type: functional, organism-based; parameters: dose 30 mg/kg
Mus musculus [2] = experiment: Compound was administered subcutaneously and was evaluated for opioid agonist activity by antinociceptive hotplate (HP) assay in mice; I denotes Inactive at 30 mg/kg; assay type: functional, organism-based; parameters: dose 30 mg/kg
Mus musculus [3] = experiment: Compound was administered subcutaneously and was evaluated for opioid antagonist activity (versus morphine) by tail-flick (TF) antagonism test; I denotes Inactive at 30 mg/kg; assay type: functional, organism-based; parameters: dose 30 mg/kg
Mus musculus [4] = experiment: Compound was administered subcutaneously and was evaluated for opioid agonist activity by antinociceptive p-phenylquinone-writhing (PPQ) assay in mice; I denotes Inactive at 30 mg/kg; assay type: functional, organism-based; parameters: dose 30 mg/kg
Mus musculus [5] = experiment: Compound was administered subcutaneously and was evaluated for opioid agonist activity by antinociceptive tail-flick (TF) assay in mice; assay type: functional
Mus musculus [6] = experiment: Compound was administered subcutaneously and was evaluated for opioid agonist activity by antinociceptive hotplate (HP) assay in mice; assay type: functional
Mus musculus [7] = experiment: Compound was administered subcutaneously and was evaluated for opioid agonist activity by antinociceptive p-phenylquinone-writhing (PPQ) assay in mice; assay type: functional
Mus musculus [8] = experiment: Compound was administered subcutaneously and was evaluated for opioid antagonist activity (versus morphine) by tail-flick (TF) antagonism test; assay type: functional
Mus musculus [9] = experiment: Compound was administered subcutaneously and was evaluated for opioid antagonist activity (versus morphine) by tail-flick (TF) antagonism test.; assay type: functional
Mus musculus [10] = experiment: Compound was administered subcutaneously and was evaluated for opioid agonist activity by antinociceptive hotplate (HP) assay in mice.; assay type: functional; settings: sc
Mus musculus [11] = experiment: Compound was administered subcutaneously and was evaluated for opioid agonist activity by antinociceptive p-phenylquinone-writhing (PPQ) assay in mice,; assay type: functional; settings: sc
Mus musculus [12] = experiment: Compound was administered subcutaneously and was evaluated for opioid agonist activity by antinociceptive tail-flick (TF) assay in mice.; assay type: functional; settings: sc
Mus musculus [13] = experiment: Compound was administered subcutaneously and was evaluated for opioid agonist activity by antinociceptive hotplate (HP) assay in mice,; assay type: functional; settings: sc
[14] = Mus musculus, sc, read-out: ED50

`COc1cccc([C@@]23CCC[C@H]([C@H]2C)N(C)CC3)c1` was tested, and the ED50 (Mus musculus [1]) was “inactive”, the ED50 (Mus musculus [2]) was “inactive” and the ED50 (Mus musculus [3]) was “inactive”. The ED50 (Mus musculus [4]) was “inactive”.
With `Br.CN1CC[C@]2(c3cccc(O)c3)CCC[C@@H]1C2` (stereo in doubt; (+)) the ED50 (Mus musculus [5]) was 1.1 mg/kg, the ED50 (Mus musculus [6]) was 0.4 mg/kg and the ED50 (Mus musculus [7]; [14]) was 0.5 mg/kg.
In the case of `CN1CC[C@]2(c3cccc(O)c3)CCC[C@@H]1C2` (stereo in doubt; (+)), the AD50 (Mus musculus [3]) is reported as “inactive”.
`Br.CN1CC[C@]2(c3cccc(O)c3)CCC[C@@H]1C2` (stereo in doubt; (-)) showed an ED50 (Mus musculus [5]) of 5.4 mg/kg, an ED50 (Mus musculus [6]) of 1.7 mg/kg and an ED50 (Mus musculus [7]) of 0.9 mg/kg.
In the case of `CN1CC[C@]2(c3cccc(O)c3)CCC[C@@H]1C2` (stereo in doubt; (-)), the AD50 (Mus musculus [3]) is reported as “inactive”.
In the case of `C[C@@H]1[C@H]2CCC[C@@]1(c1cccc(O)c1)CCN2C.Cl` (stereo in doubt; form 1), the AD50 (Mus musculus [8]) is reported as 4.5 mg/kg.
For `C[C@@H]1[C@H]2CCC[C@@]1(c1cccc(O)c1)CCN2C` (stereo in doubt; form 1), the ED50 (Mus musculus [1]) was “inactive”, the ED50 (Mus musculus [2]) was “inactive” and the ED50 (Mus musculus [4]) was “inactive”.
`C[C@@H]1[C@H]2CCC[C@@]1(c1cccc(O)c1)CCN2C.Cl` (stereo in doubt; form 2) showed an ED50 (Mus musculus [6]; [14]) of 10 mg/kg and an ED50 (Mus musculus [7]; [14]) of 1.9 mg/kg.
`C[C@@H]1[C@H]2CCC[C@@]1(c1cccc(O)c1)CCN2C` (stereo in doubt; form 2) was tested, and the ED50 (Mus musculus [1]) was “inactive” and the AD50 (Mus musculus [3]) was “inactive”.
In the case of `C[C@@H]1[C@H]2CCC[C@@]1(c1cccc(O)c1)CCN2C.Cl` (stereo in doubt; form 3), the AD50 (Mus musculus [9]) is reported as 5 mg/kg and the ED50 (Mus musculus [10]) is reported as 9.3 mg/kg.
`C[C@@H]1[C@H]2CCC[C@@]1(c1cccc(O)c1)CCN2C` (stereo in doubt; form 3) was tested, and the ED50 (Mus musculus [1]) was “inactive” and the ED50 (Mus musculus [4]) was “inactive”.
For `COc1ccc2c3c1O[C@H]1[C@@H](O)C=C[C@H]4[C@@H](C2)N(C)CC[C@@]341` [CODEINE], the ED50 (Mus musculus [11]) was 1.4 mg/kg, the ED50 (Mus musculus [12]) was 14.5 mg/kg and the ED50 (Mus musculus [13]) was 6.8 mg/kg. For the same molecule, the AD50 (Mus musculus [3]) was “inactive”.
For `CN1CC[C@]23c4c5ccc(O)c4O[C@H]2[C@@H](O)C=C[C@H]3[C@H]1C5` [MORPHINE], the ED50 (Mus musculus [11]) was 0.2 mg/kg and the AD50 (Mus musculus [3]) was “inactive”.
In the case of `C=CCN1CC[C@]23c4c5ccc(O)c4O[C@H]2[C@@H](O)C=C[C@H]3[C@H]1C5` [NALORPHINE], the AD50 (Mus musculus [9]) is reported as 2.6 mg/kg, the ED50 (Mus musculus [1]) is reported as “inactive” and the ED50 (Mus musculus [7]; [14]) is reported as 0.6 mg/kg.
